Assay results taken from the NIST ThermoML archive (doi:10.1016/j.jct.2012.09.012).

Test: xn = mol fraction of the nth substance listed
Settings: Liquid, Vibrating tube method

CC1=CC[C@H]2C[C@@H]1C2(C)C [(S)-2-pinene] + C=C1CCC2CC1C2(C)C
mass density [kg/m3]
Settings | x1 = 0.1044 | x1 = 0.1926 | x1 = 0.3036 | x1 = 0.3949 | x1 = 0.502 | x1 = 0.6052 | x1 = 0.7022 | x1 = 0.7983 | x1 = 0.9028 | x1 = 1
328.15 K, 20000 kPa | 857.2 | 855.9 | 855 | 853.7 | 852.5 | 851.3 | 850.2 | 849.1 | 847.9 | 846.7
328.15 K, 25000 kPa | 860.6 | 859.5 | 858.3 | 857.2 | 856.1 | 854.9 | 853.8 | 852.7 | 851.5 | 850.4
328.15 K, 30000 kPa | 864.1 | 863.1 | 862 | 860.8 | 859.6 | 858.5 | 857.4 | 856.3 | 855.1 | 854
328.15 K, 35000 kPa | 867.5 | 866.6 | 865.4 | 864.3 | 863.1 | 861.9 | 860.9 | 859.8 | 858.6 | 857.5
328.15 K, 40000 kPa | 870.8 | 870 | 868.9 | 867.7 | 866.6 | 865.5 | 864.3 | 863.4 | 862.1 | 861.1
343.15 K, 20000 kPa | 846.7 | 845.5 | 844.3 | 843.2 | 841.9 | 840.7 | 839.4 | 838.3 | 837 | 835.9
343.15 K, 25000 kPa | 850.5 | 849.3 | 848.1 | 847 | 845.7 | 844.6 | 843.3 | 842.1 | 840.9 | 839.7
343.15 K, 30000 kPa | 854.2 | 853 | 851.9 | 850.9 | 849.6 | 848.5 | 847.2 | 846.2 | 844.9 | 843.8
343.15 K, 35000 kPa | 857.7 | 856.6 | 855.5 | 854.5 | 853.3 | 852.2 | 851 | 850 | 848.7 | 847.7
343.15 K, 40000 kPa | 861.3 | 860.2 | 859.1 | 858.1 | 857 | 855.9 | 854.7 | 853.7 | 852.4 | 851.4
358.15 K, 20000 kPa | 835.9 | 834.6 | 833.3 | 832.2 | 831 | 829.8 | 828.5 | 827.3 | 826.1 | 825
358.15 K, 25000 kPa | 839.8 | 838.6 | 837.4 | 836.3 | 835 | 833.9 | 832.7 | 831.5 | 830.3 | 829.2
358.15 K, 30000 kPa | 843.7 | 842.5 | 841.3 | 840.3 | 839 | 838 | 836.7 | 835.6 | 834.4 | 833.3
358.15 K, 35000 kPa | 847.6 | 846.4 | 845.2 | 844.2 | 843 | 841.8 | 840.7 | 839.6 | 838.4 | 837.4
358.15 K, 40000 kPa | 851.5 | 850.4 | 849.1 | 848.2 | 847.1 | 846 | 844.8 | 843.8 | 842.6 | 841.5
